Earlier results in patent publication US20210244680A1, “WEARABLE LIPOSOMAL CANNABIDIOL TRANSDERMAL PATCH” (priority 2020, published 2021).

Tested on: rats with arthritis
Details: topical gel containing CBD applied to rats with arthritis for 4 days

C=C(C)[C@@H]1CCC(C)=C[C@H]1c1c(O)cc(CCCCC)cc1O [CBD, Cannabidiol]
inflammation and signs of pain: significant drop in inflammation and signs of pain | side effects: without additional side effects
